Legend:
Type in all cases: physicochemical
[1] = Doxorubicin release from copolymer aqueous gel; conditions: 37° C.; 20% (w/w) copolymer gel; FIG. 3
Description: Doxorubicin was used as a hydrophilic drug in a drug release study using the copolymer of EXAMPLE 1 in a 20% (w/w) aqueous solution. The drug (4 mg) was dissolved in 2 ml of the polymer solution. The drug/polymer solution was filtered through a 0.2 μm syringe and an aliquot of 0.5 ml of the solution was added to each sample vial. The triplet samples were placed in a water bath preheated and stabilized at 37° C. After 10 min a buffer solution of 1×PBS (1 ml, preheated at 37° C.) was added to each sample vial containing a gelled drug/polymer solution. The drug contents in the release media, which were removed and replaced with fresh PBS solutions at each sampling point, were determined at 1, 3, 6 h and then daily for 8 days by a spectrophotometer (SpecraMax M2 by Molecular Devices).

[2] = Paclitaxel release from copolymer aqueous gel; conditions: 37° C.; 20% (w/w) copolymer gel; FIG. 2
Description: Paclitaxel was used as a hydrophobic drug in a drug release study using the copolymer of EXAMPLE 1 in a 20% (w/w) aqueous solution. The drug (4 mg) was added to a 4 ml vial containing 0.2 ml of the polymer solution. At 4° C. the sample vial was sonicated for 15 min and vortexed for 16 h and sonicated for 15 min again to give a slightly cloudy suspension. After filtered through a 0.2 μm syringe filter an aliquot (0.2 ml) of the solution was added to each sample vial. The triplet samples were placed in a water bath preheated and stabilized at 37° C. After 10 min a buffer solution of 1×PBS (3 ml, preheated at 37° C.) containing 2.4% (w/w) of Tween 80 and 4% (w/w) of Cremophor EL was added to each sample vial containing a gelled drug/polymer solution. The drug release was determined by taking an aliquot of the medium from each sample vial at 1.5 h, 6 h and then daily for 10 days and analyzing the drug content of the sample by HPLC (mobile phase 1 ml/min 50/50 acetonitrile/deioned water, wavelength 227 nm, running time 15 min).

[3] = Enhanced drug solubility in polymer gel (HPLC); conditions: aqueous solution of Example 1 polymer (20% w/w); filtered 0.2 μm
Description: In a 4 ml vial the polymer from EXAMPLE 1 (200 mg) and paclitaxel (2 mg) were dissolved in acetone (1·ml). The mixture was evaporated under vacuum for 16 h. Deionized water (0.8 ml) was added and the mixture was stirred at 4° C. for 24 h. The resulting solution was filtered through a 0.2 μm syringe filter to give a clear solution. An aliquot of the solution was diluted 100-fold with acetonitrile and analyzed for paclitaxel by HPLC (mobile phase: water/acetonitrile 1:1, 1 ml/min, injection volume: 20 μl, running time: 15 min, column: Waters Symmetry 300™ 4.6×250 mm, C18 5 μm, detector: Waters 2996).

duration of controlled drug release from copolymer aqueous gel [1] [days]	duration of controlled drug release from copolymer aqueous gel [2] [days]	paclitaxel content in the aqueous solution [3] [mg/mL]	SMILES
8	–	–	COc1cccc2c1C(=O)c1c(O)c3c(c(O)c1C2=O)C[C@@](O)(C(=O)CO)C[C@@H]3O[C@H]1C[C@H](N)[C@H](O)[C@H](C)O1 [doxorubicin, Doxorubicin]
–	10	6.4	CC(=O)O[C@H]1C(=O)[C@@]2(C)[C@H]([C@H](OC(=O)c3ccccc3)[C@]3(O)C[C@H](OC(=O)[C@H](O)[C@@H](NC(=O)c4ccccc4)c4ccccc4)C(C)=C1C3(C)C)[C@]1(OC(C)=O)CO[C@@H]1C[C@@H]2O [paclitaxel, Paclitaxel]
